According to US10058550B2, “Methods of treating heart failure” (priority 2015, dated 2018):

Target: human APJ receptor (Homo sapiens (Human), UniProt P35414)
Assay: biochemical
Type: biochemical
Details: read-out: Activity hAPJ SPA EC50 IP
Description: The human APJ receptor was cloned by polymerase chain reaction and the gene encoding the receptor was subcloned in pFLAG-CMV™-3 expression vector (Sigma, Saint Louis, Mo. USA) in-house at Amgen. A GTPγS binding assay was performed on membranes prepared from CHO cells stably expressing human APJ receptor. The optimum experimental conditions for the concentrations of GDP, MgCl2, and NaCl in the assay buffer were initially determined. The assay was performed in assay buffer [20 mM HEPES, pH 7.5, 5 mM MgCl2, and 0.1% (w/v) BSA with 200 mM NaCl, 3 μM GDP] and membranes expressing human APJ receptor/well along with WGA PS beads. The reaction was initiated by addition of 0.2 nM [^35S]GTPγS (Perkin Elmer Life and Analytical Sciences, Waltham USA) in the absence or presence of various ligands and incubated at RT for 90 min. […] All the results presented are means of several independent experiments and analyzed by non-linear regression methods using commercially available program Prism (GraphPad, San Diego, Calif.) to obtain EC50 detailed in Table 58.

Sequence of human APJ receptor (P35414 whole entry): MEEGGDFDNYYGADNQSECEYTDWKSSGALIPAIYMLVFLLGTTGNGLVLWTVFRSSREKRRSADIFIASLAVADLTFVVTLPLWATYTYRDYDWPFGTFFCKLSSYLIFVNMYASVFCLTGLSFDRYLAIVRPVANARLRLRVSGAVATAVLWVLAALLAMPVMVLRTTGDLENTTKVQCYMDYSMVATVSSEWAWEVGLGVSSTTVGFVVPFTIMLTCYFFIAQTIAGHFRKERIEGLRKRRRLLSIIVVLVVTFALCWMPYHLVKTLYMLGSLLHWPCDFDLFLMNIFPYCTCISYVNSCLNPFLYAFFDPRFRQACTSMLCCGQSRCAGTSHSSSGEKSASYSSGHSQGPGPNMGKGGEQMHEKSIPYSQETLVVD

SMILES: COc1cccc(-c2nnc(NS(=O)(=O)[C@@H](C)[C@H](OC)c3ncc(C)cn3)n2-c2c(OC)ccnc2OC)n1 (atropisomer, axis not shown) [Example 636.0, (1R,2S, P)-N-(4-(2,4-dimethoxypyridin-3-yl)-5-(6-methoxypyridin-2-yl)-4H-1,2,4-triazol-3-yl)-1-methoxy-1-(5-methylpyrimidin-2-yl)propane-2-sulfonamide and (1R,2S, M)-N-(4-(2,4-dimethoxypyridin-3-yl)-5-(6-methoxypyridin-2-yl)-4H-1,2,4-triazol-3-yl)-1-methoxy-1-(5-methylpyrimidin-2-yl)propane-2-sulfonamide]
- EC50: 0.4 nM

SMILES: COc1cccc(F)c1-n1c(NS(=O)(=O)[C@@H](C)[C@H](C)c2ncc(C)cn2)nnc1-c1cncc(C)c1 (atropisomer, axis not shown) [Example 688.0, (2S,3R, P)-N-(4-(2-fluoro-6-methoxyphenyl)-5-(5-methyl-3-pyridinyl)-4H-1,2,4-triazol-3-yl)-3-(5-methyl-2-pyrimidinyl)-2-butanesulfonamide 2,2,2-trifluoroacetate and (2S,3R, M)-N-(4-(2-fluoro-6-methoxyphenyl)-5-(5-methyl-3-pyridinyl)-4H-1,2,4-triazol-3-yl)-3-(5-methyl-2-pyrimidinyl)-2-butanesulfonamide 2,2,2-trifluoroacetate]
- EC50: 0.66 nM

SMILES: COc1cccc(-c2nnc(NS(=O)(=O)[C@@H](C)[C@H](OC)c3ncc(C)cn3)n2-c2cccnc2OC)n1 (atropisomer, axis not shown) [Example 741.0, (1R,2S)-1-methoxy-N-(5-(6-methoxypyridin-2-yl)-4-(2-methoxypyridin-3-yl)-4H-1,2,4-triazol-3-yl)-1-(5-methylpyrimidin-2-yl)propane-2-sulfonamide]
- EC50: 3.1 nM

SMILES: COc1ccccc1-n1c(NS(=O)(=O)[C@@H](C)[C@H](C)c2ncc(C)cn2)nnc1-c1cncc(C)c1 (atropisomer, axis not shown) [Example 797.0, (2S,3R, P)-N-(4-(2-methoxyphenyl)-5-(5-methyl-3-pyridinyl)-4H-1,2,4-triazol-3-yl)-3-(5-methyl-2-pyrimidinyl)-2-butanesulfonamide and (2S,3R, M)-N-(4-(2-methoxyphenyl)-5-(5-methyl-3-pyridinyl)-4H-1,2,4-triazol-3-yl)-3-(5-methyl-2-pyrimidinyl)-2-butanesulfonamide]
- EC50: 2.4 nM

SMILES: COc1cccc(-c2nnc(NS(=O)(=O)[C@@H](C)[C@H](OC)c3ncc(C)cn3)n2-c2cc(C)ccc2OC)n1 (atropisomer, axis not shown; (P)) [Example 40.0, (1R,2S,P)-1-methoxy-N-(4-(2-methoxy-5-methylphenyl)-5-(6-methoxypyridin-2-yl)-4H-1,2,4-triazol-3-yl)-1-(5-methylpyrimidin-2-yl)propane-2-sulfonamide and (1R,2S,M)-1-methoxy-N-(4-(2-methoxy-5-methylphenyl)-5-(6-methoxypyridin-2-yl)-4H-1,2,4-triazol-3-yl)-1-(5-methylpyrimidin-2-yl)propane-2-sulfonamide]
- EC50: 4.7 nM

SMILES: COc1cccc(-c2nnc(NS(=O)(=O)[C@@H](C)[C@H](OC)c3ncc(C)cn3)n2-c2ccccc2OC)n1 (atropisomer, axis not shown; (P)) [Example 52.0, (1R,2S,P)-1-methoxy-N-(4-(2-methoxyphenyl)-5-(6-methoxy-2-pyridinyl)-4H-1,2,4-triazol-3-yl)-1-(5-methyl-2-pyrimidinyl)-2-propanesulfonamide and (1R,2S,M)-1-methoxy-N-(4-(2-methoxyphenyl)-5-(6-methoxy-2-pyridinyl)-4H-1,2,4-triazol-3-yl)-1-(5-methyl-2-pyrimidinyl)-2-propanesulfonamide]
- EC50: 4.2 nM
